In patent US20260335456A1, “ANTIBODY-DRUG CONJUGATE HAVING CAMPTOTHECIN-BASED DRUG LINKED TO ANTIBODY HAVING LOW ANTIGEN-BINDING AFFINITY THROUGH LINKER” (PINOTBIO, INC., priority 2022, published 2026):

How the values were obtained:
rats and beagle dogs = experiment: FL118 GLP-toxicity tests; assay type: in vivo; conditions: GLP-toxicity tests in rats and beagle dogs
Description: (§1) Meanwhile, camptothecin-based anticancer drugs show excellent anticancer responses initially when used in patients, but strong resistance to these drugs appears through Epigenetic Silencing of the Top1 gene and Top2 Dependence of cancer cells.

[1] = system: cancer cell line Xenograft models; experiment: FL118 xenograft and human tumor animal model efficacy; assay type: in vivo
Description: Genetic manipulation of DDX5 in PDAC cells affects tumor growth.
as §1

ABCG2 = biological target: T1, ABCG2 (Homo sapiens, UniProt Q9UNQ0); experiment: Sensitivity to ABCG2 transporter; assay type: cell-based
T1 sequence (Q9UNQ0 1-655): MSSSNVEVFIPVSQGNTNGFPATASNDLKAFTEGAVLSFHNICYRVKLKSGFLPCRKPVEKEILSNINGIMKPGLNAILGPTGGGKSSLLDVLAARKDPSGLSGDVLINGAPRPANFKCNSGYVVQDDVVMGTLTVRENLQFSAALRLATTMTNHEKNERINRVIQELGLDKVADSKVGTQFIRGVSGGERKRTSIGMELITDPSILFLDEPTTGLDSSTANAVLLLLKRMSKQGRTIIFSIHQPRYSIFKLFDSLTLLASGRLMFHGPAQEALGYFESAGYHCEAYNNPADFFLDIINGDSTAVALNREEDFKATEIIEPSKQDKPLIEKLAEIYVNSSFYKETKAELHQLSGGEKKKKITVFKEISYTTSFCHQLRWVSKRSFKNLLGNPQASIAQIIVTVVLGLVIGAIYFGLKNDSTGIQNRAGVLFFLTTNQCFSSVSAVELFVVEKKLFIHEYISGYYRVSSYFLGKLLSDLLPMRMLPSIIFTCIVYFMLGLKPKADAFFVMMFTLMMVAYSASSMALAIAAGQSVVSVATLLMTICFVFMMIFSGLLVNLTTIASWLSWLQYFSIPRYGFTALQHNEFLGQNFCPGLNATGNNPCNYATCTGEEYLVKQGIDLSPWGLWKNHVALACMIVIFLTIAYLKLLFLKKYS

[2] = FL118 pharmacokinetics and tumor accumulation; assay type: in vivo
Description: For example, when applying ADC, maximum selectivity between tumor tissue and normal tissue is ensured.

FaDu cell line = experiment: Western blot of DDX5 and anti-apoptotic proteins in FaDu; assay type: cell-based; conditions: FaDu and A549; 0, 10, 100 nM
Description: 1-1: Confirmation of Suppressive Activity of Expression of Cancer-Related Survival Genes of DDX5, Survivin, Mcl-1, XIAP and cIAP2 Through Western Blot
200,000 FaDu cell lines were seeded per well in a 6-well plate and incubated at constant temperature (37 °C, 5% CO2). […] It was incubated at constant temperature (37 °C, 5% CO2) for 24 hours. The well was treated with 100 μL of RIPA buffer dissolved in protease inhibitor cocktail. […] Protein concentration was determined through protein assay.
Electrophoresis was performed on the gel at 60V.
7 sheets of activated filter paper, PVDF membrane, gel and 7 sheets of filter paper were placed in order in the cassettes of the Trans-Blot® Turbo™ Transfer System, and the lid was closed, and after being inserted into the machine, the protocol started.
The transferred membrane was immersed in blocking buffer and incubated at constant temperature (RT, 1h). Next, it was incubated at 4 °C overnight in primary antibody solution. It was rinsed with TBST buffer for 3 minutes (repeated 3 times). Incubation was performed (RT, 1h) in a secondary antibody solution conjugated with HRP. It was rinsed with TBST buffer for 3 minutes (repeated 3 times).
After soaking the membrane in the ECL substrate for 3 to 5 minutes, the signal was determined by using the ChemiDoc™ MP Imaging System.

A549 cell line = experiment: Western blot of DDX5 and anti-apoptotic proteins in A549; assay type: cell-based; conditions: FaDu and A549; 0, 10, 100 nM
[3] = system: HCT-8 and FaDu cell lines; experiment: Western blot of anti-apoptotic proteins in HCT-8 and FaDu; assay type: cell-based; conditions: FIG. 6
Description: GAPDH is an enzyme involved in glycolysis, which is an essential metabolic process in cells.

in vitro cytotoxicity = experiment: In vitro cytotoxicity of FL118, exatecan versus SN-38; assay type: cell-based; conditions: FIG. 5
DDX5 protein = DDX5 protein (Homo sapiens, UniProt P17844); experiment: DDX5 degradation by camptothecin drugs; assay type: cell-based; conditions: FIGS. 7 to 10
[4] = system: cancer cell line Xenograft models; conditions: cited from earlier work
PDAC cells with DDX5 KO = conditions: cited from earlier work
relapsed glioblastoma = conditions: cited from earlier work
EGFR [5] = conditions: cited from earlier work
several cell lines = conditions: cited from earlier work
liver = conditions: versus parent hRS7 IgG; U.S. Pat. No. 9,629,926 B; cited from earlier work
DNA topoisomerase I = DNA topoisomerase I (Homo sapiens, UniProt P11387); conditions: versus SN-38 and topotecan; cited from earlier work
various cancer cells = conditions: resistance due to expression of P-glycoprotein; cited from earlier work
EGFR [6] = conditions: cited from earlier work; remark: listed apart in the source
patients [7] = conditions: phase 1 studies; cited from earlier work
patients [8] = conditions: cited from earlier work
[9] = system: normal skin and kidney cells; conditions: compared with cetuximab; cited from earlier work
[10] = system: wide range of cancer cell lines; conditions: Lee et al.; cited from earlier work
[11] = Kim et al.; doses 10 times higher than the clinically applicable dose; cited from earlier work
patients [12] = conditions: domestic clinical studies; cited from earlier work
FaDu Xenograft model = experiment: PBX-001 in FaDu Xenograft model; assay type: in vivo; conditions: DAR 8, FIGS. 12 and 13
Trop2 = biological target: T2, Trop2 (Homo sapiens, UniProt P09758); experiment: PBX-001 in vitro and in vivo efficacy versus Trodelvy; conditions: FIGS. 11 to 13
T2 sequence (P09758 27-323): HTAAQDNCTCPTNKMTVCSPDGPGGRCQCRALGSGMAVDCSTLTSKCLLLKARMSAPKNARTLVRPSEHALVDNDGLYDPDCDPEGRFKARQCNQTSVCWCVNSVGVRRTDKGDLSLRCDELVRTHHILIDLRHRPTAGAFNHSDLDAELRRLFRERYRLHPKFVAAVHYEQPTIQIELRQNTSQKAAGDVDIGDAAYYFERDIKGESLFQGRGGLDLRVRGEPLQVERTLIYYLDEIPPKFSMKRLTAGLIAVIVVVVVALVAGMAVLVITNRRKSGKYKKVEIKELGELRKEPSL

non-human primate = experiment: PBX-001 non-human primate toxicity study; assay type: in vivo
[13] = system: cells with an ABCG2 efflux pump; experiment: ABCG2 efflux pump resistance, PBX-001 versus Trodelvy; assay type: cell-based

Sequence of DDX5 protein (P17844 whole entry): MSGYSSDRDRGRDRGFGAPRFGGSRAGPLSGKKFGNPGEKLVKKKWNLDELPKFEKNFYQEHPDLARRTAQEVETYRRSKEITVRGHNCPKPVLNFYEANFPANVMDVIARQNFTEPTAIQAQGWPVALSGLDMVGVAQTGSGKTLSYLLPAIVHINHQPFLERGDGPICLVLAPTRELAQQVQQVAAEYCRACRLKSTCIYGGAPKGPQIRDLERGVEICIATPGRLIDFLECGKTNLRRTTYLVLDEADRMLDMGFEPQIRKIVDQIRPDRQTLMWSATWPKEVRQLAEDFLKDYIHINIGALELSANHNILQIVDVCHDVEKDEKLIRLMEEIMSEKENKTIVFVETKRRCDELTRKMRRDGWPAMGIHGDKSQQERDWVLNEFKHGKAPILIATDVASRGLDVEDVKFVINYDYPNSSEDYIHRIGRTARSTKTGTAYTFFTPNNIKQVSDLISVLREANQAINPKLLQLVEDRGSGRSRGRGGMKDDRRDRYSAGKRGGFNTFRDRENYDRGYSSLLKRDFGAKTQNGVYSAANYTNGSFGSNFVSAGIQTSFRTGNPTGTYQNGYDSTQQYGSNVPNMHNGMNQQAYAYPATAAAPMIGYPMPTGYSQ
Sequence of DNA topoisomerase I (P11387 whole entry): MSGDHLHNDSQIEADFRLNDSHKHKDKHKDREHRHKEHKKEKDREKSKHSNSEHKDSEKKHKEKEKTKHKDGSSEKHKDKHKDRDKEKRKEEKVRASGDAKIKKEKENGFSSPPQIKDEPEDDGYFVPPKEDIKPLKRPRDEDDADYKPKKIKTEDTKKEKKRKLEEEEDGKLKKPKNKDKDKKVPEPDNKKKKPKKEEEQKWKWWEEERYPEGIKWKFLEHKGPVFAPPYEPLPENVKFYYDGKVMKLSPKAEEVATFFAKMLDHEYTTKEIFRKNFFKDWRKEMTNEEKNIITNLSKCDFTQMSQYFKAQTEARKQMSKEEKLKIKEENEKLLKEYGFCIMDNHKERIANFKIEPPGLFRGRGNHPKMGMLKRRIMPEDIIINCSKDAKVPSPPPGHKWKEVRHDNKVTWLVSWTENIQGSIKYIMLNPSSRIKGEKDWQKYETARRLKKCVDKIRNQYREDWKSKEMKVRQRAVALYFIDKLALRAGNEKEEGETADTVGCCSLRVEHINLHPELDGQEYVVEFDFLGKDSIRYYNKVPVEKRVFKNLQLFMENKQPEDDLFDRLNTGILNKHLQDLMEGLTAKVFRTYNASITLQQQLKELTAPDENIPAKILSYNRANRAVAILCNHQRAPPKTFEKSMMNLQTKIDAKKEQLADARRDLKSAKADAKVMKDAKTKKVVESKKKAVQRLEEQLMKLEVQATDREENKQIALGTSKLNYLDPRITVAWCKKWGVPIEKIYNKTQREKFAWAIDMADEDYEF

For `CC[C@@]1(O)C(=O)OCc2c1cc1n(c2=O)Cc2cc3cc4c(cc3nc2-1)OCO4` [FL118, 10, 11-methylenedioxy-camptothecin], the safety (rats and beagle dogs) was “excellent safety”, the “xenograft efficacy, Top1 not expressed” value ([1]; Epigenetic Silencing or Knock-out of Top1) was “strong efficacy” and the “anticancer efficacy after SN-38 resistance” value ([1]; after inducing SN-38 resistance in tumor xenograft) was “strong anticancer efficacy”. The tumor regression efficacy ([1]; same amount as SN-38, colon, head and neck, pancreatic cancer) was “stronger tumor regression efficacy than SN-38”, the xenograft efficacy ([1]; versus SN-38 in various cancer cell line Xenograft models) was “superior efficacy compared to SN-38” and the “sensitivity to ABCG2” value (ABCG2) was “not affected by the ABCG2 Transporter”. For the same compound, the “accumulation in cancer tissue” value ([2]; immediately after administration) was “accumulates quickly in cancer tissue”, the blood clearance ([2]; systemic administration alone) was “rapidly metabolized and excreted from the blood” and the DDX5 degradation ranking (FaDu cell line) was “superior to other substances”. For the same compound, the DDX5 degradation ranking (A549 cell line) was “superior to other substances”, the “downregulating tumor proteins versus SN-38” value [3] was “better efficacy in downregulating tumor proteins compared to the SN-38 drug” and the “in vitro cytotoxicity versus SN-38” value (in vitro cytotoxicity) was “better efficacy against in vitro cytotoxicity compared to SN-38”. The “DDX5 degradation mechanism of action” value (DDX5 protein) was “directly binds to the tumor protein DDX5”, the “efficacy in eliminating human PDAC and CRC tumors, high DDX5 expression” value ([4]; high DDX5 expression) was “high efficacy” and the “efficacy in PDAC and CRC tumors, low DDX5 expression” value ([4]; low DDX5 expression) was “less effective”. For the same compound, the “sensitivity of DDX5 KO cells” value (PDAC cells with DDX5 KO) was “resistant”.
For ABT-414: ADC targeting EGFR variant III, the monotherapy efficacy (relapsed glioblastoma) is given as “promising monotherapy efficacy”.
For “panitumumab: antibody drug targeting EGFR”, the “binding affinity relative to nimotuzumab” value (EGFR [5]) is given as “more than 10 times”.
In the case of `CCc1c2c(nc3ccc(O)cc13)-c1cc3c(c(=O)n1C2)COC(=O)[C@]3(O)CC` [SN-38], the “sensitivity to ABCG2” value (ABCG2) is listed as “show resistance in the way that the drug is released out of the cell due to overexpression of the ABCG2 Transporter” and the IC50 (several cell lines) is listed as “nanomolar range”.
For “hRS7-CL2A-SN-38: Trop-2 ADC of hRS7 with CL2A-SN-38”, the liver uptake (liver) is given as “two-fold higher liver uptake”.
With `CC[C@@]1(O)C(=O)OCc2c1cc1n(c2=O)Cc2c-1nc1cc(F)c(C)c3c1c2[C@@H](N)CC3` [Exatecan] the “sensitivity to ABCG2” value (ABCG2) was “almost unaffected by ABCG2”, the “downregulating tumor proteins versus SN-38” value [3] was “better efficacy in downregulating tumor proteins compared to the SN-38 drug” and the “in vitro cytotoxicity versus SN-38” value (in vitro cytotoxicity) was “better efficacy against in vitro cytotoxicity compared to SN-38”. For the same compound, the “DDX5 degradation mechanism of action” value (DDX5 protein) was “exerts a mechanism of action (MoA) to degrade DDX5 protein”, the “type I topoisomerase inhibitory activity” value (DNA topoisomerase I) was “stronger type I topoisomerase inhibitory activity than SN-38” and the “effect on cancer cells resistant to SN-38 and other drugs” value (various cancer cells) was “effective against cancer cells that are resistant to SN-38”.
For “ABX-EGF: fully humanized IgG2 monoclonal antibody to EGFR”, the “affinity for EGFR versus cetuximab” value (EGFR [6]) is given as “higher affinity for EGFR than cetuximab” and the most common toxicity (patients [7]) is given as “skin toxicity”.
For “Nimotuzumab: humanized IgG1 EGFR-targeting antibody”, the side effects severity (patients [8]; humans) is listed as “only mild to moderate in severity”, the “incidence of severe acneiform rash and gastrointestinal mucosal toxicity” value (patients [8]; patients) is listed as “much lower incidence” and the “binding to normal skin and kidney cells” value [9] is listed as “much less binding than cetuximab”.
For `CC[C@@]1(O)C(=O)OCc2c1cc1n(c2=O)Cc2c-1nc1ccccc1c2CCNC(C)C` [CKD-602], the “anticancer effects versus camptothecin and topotecan” value [10] is given as “superior anticancer effects compared to camptothecin and topotecan”, the adverse drug reactions [11] is given as “no adverse drug reactions other than increased gastric secretion” and the “side effects in clinical studies” value (patients [12]) is given as “only reversible and controllable side effects such as neutropenia and leukopenia”.
With “PBX-001: ADC of humanized anti-Trop2 antibody hRS7, FL118 and CL2A linker system” the “anticancer efficacy and weight loss” value (FaDu Xenograft model) was “excellent anticancer efficacy without weight loss”, the “in vitro and in vivo efficacy versus Trodelvy” value (Trop2) was “better efficacy than Trodelvy” and the safety (non-human primate) was “excellent safety”. For the same compound, the “resistance through ABCG2 efflux pump” value [13] was “not affected”.
